Experimental data from patent US20080319031A1, “Novel Tyrosine Derivatives” (Orchid Chemicals & Pharmaceuticals Limited, priority 2005, published 2008).
Each block holds one compound with its values, some of them ahead of it.

Legend:
TNF-α [1] = assay: TNF-α inhibition in LPS-challenged human PBMC (ELISA); format: cell-based; conditions: hPBMC 1×10^6/mL, LPS 100 ng/mL for 20 hours, different concentrations
Description: (§1) FIG. 1. TNF-α, IL-6 and IL-1β inhibition in human peripheral blood monocytic cells (hPBMC).
(§2) Human PBMC cells were cultured and incubated with compound 1 in example 1 at different concentrations. Cells (1×10^6/mL) were challenged with lipopolysaccharides (LPS) at a concentration of (100 ng/mL) for 20 hours. Cell supernatant was analyzed for the presence of TNF-α, IL-1β and IL-6 cytokines by antibody directed enzyme-linked immunoassay.

IL-1β = IL-1β inhibition in LPS-challenged human PBMC (ELISA); format: cell-based; conditions: hPBMC 1×10^6/mL, LPS 100 ng/mL for 20 hours, different concentrations
Description: as §1, §2

IL-6 = IL-6 inhibition in LPS-challenged human PBMC (ELISA); format: cell-based; conditions: hPBMC 1×10^6/mL, LPS 100 ng/mL for 20 hours, different concentrations
Description: as §1, §2

[2] = test system: human peripheral blood mononuclear cells; assay: Cell viability of human PBMC incubated with compound; format: cell-based; conditions: hPBMC, highest concentration of the compound
COX-2 = target: T1, COX-2 (Homo sapiens, UniProt P35354); assay: COX-2 inhibition: LPS induced PGE-2 in human PBMC (ELISA); format: cell-based
T1 construct: LPS, also induces cycloxygenase-2 (COX-2) enzyme in this system; endogenous in cells; host or cells: human peripheral blood mononuclear cells from volunteers, LPS-stimulated
T1 sequence (P35354 18-604): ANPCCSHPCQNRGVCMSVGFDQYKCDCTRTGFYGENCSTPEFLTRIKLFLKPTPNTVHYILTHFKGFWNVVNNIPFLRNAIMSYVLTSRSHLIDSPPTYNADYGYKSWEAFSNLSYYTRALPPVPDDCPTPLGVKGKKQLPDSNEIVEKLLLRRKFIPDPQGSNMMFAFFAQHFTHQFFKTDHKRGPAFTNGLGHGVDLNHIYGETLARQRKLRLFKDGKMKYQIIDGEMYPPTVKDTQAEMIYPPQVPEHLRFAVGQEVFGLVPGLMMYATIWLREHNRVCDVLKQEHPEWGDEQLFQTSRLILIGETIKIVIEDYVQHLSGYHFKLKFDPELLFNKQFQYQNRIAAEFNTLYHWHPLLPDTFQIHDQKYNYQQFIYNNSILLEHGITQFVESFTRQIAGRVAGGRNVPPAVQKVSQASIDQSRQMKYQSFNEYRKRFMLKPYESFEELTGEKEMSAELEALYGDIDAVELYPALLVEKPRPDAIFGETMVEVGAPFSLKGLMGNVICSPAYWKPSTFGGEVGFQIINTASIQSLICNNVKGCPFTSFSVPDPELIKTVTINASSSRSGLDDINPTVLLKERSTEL
Description: (§3) The inflammatory stimulus, LPS, also induces cycloxygenase-2 (COX-2) enzyme in this system and as a result prostaglandin E 2 (PGE-2) is produced. Human PBMC cells were cultured and incubated with compound in example 1 at different concentrations. Cells (1×10^6/mL) were challenged with lipopolysaccharides (LPS) at a concentration of (100 ng/mL) for 20 hours. Inhibition of COX-2 was determined by the measurement of PGE-2 levels in the supernatant by ELISA (Cayman Chemicals). For the determination of PGE-2 levels, supernatants were incubated in the ELISA plate and detected by calorimetric reaction. […] The endogenous form, COX-1 is only activated when there is a physiological stimulus and goes through the same pathway for the production of PGE-2 levels. Human monocytic U-937 (2.5×10^5/mL) cells were charged with arachidonic acid to activate the COX-1 pathway. It produced PGE-2 following these kind of physiological induction. To assay the COX-1 activity, cells were preincubated with the compound for 15 min (indomethacin was kept as positive control) and then they were challenged with 10 μM arachidonic acid for next 20 min. Supernatants were harvested and measured for PGE-2 as marker of COX-1 activity.

COX-1 = target: T2, COX-1 (Homo sapiens, UniProt P23219); assay: COX-1 activity: arachidonic acid induced PGE-2 in U-937 cells; format: cell-based; conditions: 10 μM compound, 10 μM arachidonic acid 20 min
T2 construct: endogenous in cells; host or cells: U-937 human monocytic cells
T2 sequence (P23219 24-599): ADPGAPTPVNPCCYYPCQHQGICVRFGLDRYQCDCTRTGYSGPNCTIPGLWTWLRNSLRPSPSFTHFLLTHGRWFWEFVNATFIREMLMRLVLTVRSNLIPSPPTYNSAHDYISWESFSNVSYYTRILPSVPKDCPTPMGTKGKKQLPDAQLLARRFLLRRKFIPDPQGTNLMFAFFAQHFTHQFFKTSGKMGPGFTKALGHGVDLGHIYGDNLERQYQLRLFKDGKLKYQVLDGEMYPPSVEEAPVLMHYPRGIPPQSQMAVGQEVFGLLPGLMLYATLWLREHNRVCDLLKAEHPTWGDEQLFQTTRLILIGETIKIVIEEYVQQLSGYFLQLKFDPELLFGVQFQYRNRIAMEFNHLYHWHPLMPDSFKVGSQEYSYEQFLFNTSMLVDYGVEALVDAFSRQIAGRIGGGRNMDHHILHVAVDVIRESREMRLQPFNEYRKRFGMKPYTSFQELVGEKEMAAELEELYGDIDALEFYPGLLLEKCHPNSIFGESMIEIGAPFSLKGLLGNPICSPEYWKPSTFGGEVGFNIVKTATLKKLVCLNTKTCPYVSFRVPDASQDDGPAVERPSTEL
Description: as §3

TNF-α [3] = assay: LPS induced TNF-α production in vivo; set-up: species or system Swiss Webster (SW) mice; conditions: one hour before LPS 10 μg/mouse ip, blood after 90 min
Description: FIG. 3. Compound 1 Inhibits LPS Induced TNF-α Production In Vivo.
Swiss Webster (SW) mice were orally treated with vehicle, dexamethasone (5 mg/kg bw) and compound 1 in example 1 (50 mg/kg bw) one hour before LPS injection (10 μg/mouse, ip) and blood was collected after 90 min and measured TNF-α levels by ELISA as described in FIG. 1.

SJL/J mice = assay: Experimental allergic encephalomyelitis (EAE) model of multiple sclerosis; format: in vivo; conditions: EAE induced by spinal chord homogenate in SJL/J mice
Description: Multiple Sclerosis (MS) is an autoimmune disease and is regulated by cytokine levels. In order to test the effect of compound 1 in example 1 in MS model, experimental allergic encepahalomyalitis (EAE) was induced in SJL/J mice. EAE is an autoimmune inflammatory disease of the central nervous system (CNS). […] EAE was induced by injecting spinal chord homogenate and the animals were treated with example compounds. The severity of EAE was established by clinical scores of paralysis.

MCF-7 = assay: Breast cancer cell growth (MTS viability); format: cell-based; conditions: for inhibition of breast cancer cell growth: MCF-7, six consecutive days, MTS every 48 hrs
Description: MCF-7 is a breast cancer cells and they were grown in 96 well plates at 1000 cells/well. The cells were pretreated with either compound 11 in example 11 and 8 in example 8 or DMSO for six consecutive days. Every 48 hrs they were stained with MTS dye and viability was checked accordingly.

DU-145 = assay: Prostate cancer cell growth (MTS viability); format: cell-based; conditions: DU-145, six consecutive days, MTS every 48 hrs
Description: DU-145 is a prostate cancer cell and they were grown in 96 well plates at 1000 cells/well. The cells were pretreated with either compound 11 in example 11 and 8 in example 8 or DMSO for six consecutive days. Every 48 hrs they were stained with MTS dye and viability was checked accordingly.

[4] = test system: db/db (spontaneous model) diabetic mice; assay: Blood glucose and body weight in db/db obese diabetic mice; format: in vivo; conditions: 50 mg/kg body weight oral in water
Description: FIG. 5. […] Seven weeks old male db/db (spontaneous model) diabetic mice were orally treated with compound 20 in example 20 at a dose of 50 mg/kg body weight in water and blood glucose was monitored by Accuchek glucometer.

[5] = test system: C57BL/6J male ob/ob diabetic mice; assay: Blood glucose in ob/ob mice; format: in vivo; conditions: 50 mg/kg body weight oral in water, within six days of treatment
Description: FIG. 6. Lowering of Blood Glucose in ob/ob Mice by Compound 20 in Example 20. Seven weeks old C57BL/6J male ob/ob (obese, insulin resistant spontaneous model of type-II diabetes) diabetic mice were orally treated with compound 20 in example 20, at a dose of 50 mg/kg body weight dissolved in water and blood glucose (FIG. 6) was monitored by Accuchek glucometer.

Diet induced obese mice [6] = assay: Body weight in diet induced obesity mouse model; format: in vivo, C57BL/6J male mouse; conditions: 60% Kcal high fat diet, 50 mg/kg body weight, compared to vehicle
Description: FIG. 7. Effect of Compound 20 in Example 20 on Diet Induced Obesity Mouse Models. C57BL/6J male mouse were fed with 60% Kcal high fat diet (D12492, Research Diet) ad libitum 15 days prior to the beginning of the treatment. Diet induced obese mice were treated with a dose of 50 mg/kg body weight compound 20 in example 20 and their bodyweight was monitored on every third day.

Diet induced obese mice [7] = assay: OGTT and serum insulin in diet induced obesity model; format: in vivo, C57BL/6J male mouse; conditions: day 60 of high fat feeding
Description: C57BL/6J male mouse were fed with 60% Kcal high fat diet (D12492, Research Diet) ad libitum 15 days prior to the beginning of the treatment. Diet induced obese mice were treated with a dose of 50 mg/kg body weight compound 20 in example 20 and their bodyweight was monitored on every third day. […] FIG. 8. Oral Glucose Tolerance Test (OGTT) in Diet Induced Obesity Model for Compound 20 in Example 20. […] To see the effect of compound 20 in example 20, on day 60 an OGTT study was carried to observe the improvement of glucose tolerance upon the treatment of compound 20 in example 20.

3T3-L1 fibroblasts = assay: Adipogenesis in 3T3-L1 fibroblasts (Oil-red-O staining); format: cell-based
Description: FIG. 9. Compound 20 in Example 20 is Not Adipogenic.
All known PPARγ agonists induce differentiation in fibroblast cells. The adipogenic potential of these compounds are correlated with their affinity to this receptor. To check quickly the affinity of compound 20 in example 20 to this receptors, 3T3-L1 fibroblasts were treated with either DMSO control or rosiglitazone as positive control or these two compounds for several days at different concentrations. On day 13th, the differentiated adipocytes were stained with Oil-red-O (Sigma) and washed thoroughly to remove unbound stain and visualized under Olympus microscope.

HCT-116 = assay: Colon cancer cell growth (MTS viability); format: cell-based, human; conditions: 30 μM, 48 hrs
Description: FIG. 10. […] HCT-116 is a human colon cancer cell line and they were grown in 96 well plates with seeding concentration of […] cells/mL.

SMILES: COC(=O)C(N)Cc1ccc(Oc2ccc(C=C3C(=O)Nc4ccccc43)cc2)cc1.Cl (stereo not drawn) [Compound 1, Methyl-2-amino-3-(4-{4-[(2-oxo-1,2-dihydro-3H-indol-3-ylidene)methyl]phenoxy}phenyl) propanoate hydrochloride]
inhibition of TNF-α production (TNF-α [1]): inhibit the production of three major pro-inflammatory cytokines in a dose dependent manner | inhibition of IL-1β production (IL-1β): inhibit the production of three major pro-inflammatory cytokines in a dose dependent manner | inhibition of IL-6 production (IL-6): inhibit the production of three major pro-inflammatory cytokines in a dose dependent manner | change in cell viability [2]: No significant change in cell viability | inhibition of LPS induced PGE-2 production (COX-2; 10 μM compound, hPBMC): completely inhibited LPS induced PGE-2 production | selectivity on COX-2 over COX-1 activity (COX-2; LPS induced vs arachidonic acid induced PGE-2): Selectively Inhibits COX-2 Than COX-1 Enzyme | inhibition of LPS induced COX-2 activity (PGE-2 levels) (COX-2; hPBMC, LPS 100 ng/mL for 20 hours, different concentrations): dose dependently inhibited LPS induced COX-2 activity | effect on arachidonic acid induced PGE-2 levels (COX-1 activity) (COX-1): no effect on arachidonic acid induced PGE-2 levels | reduction of TNF levels compared to control group (TNF-α [3]; 50 mg/kg bw oral): 25% | severity of EAE (clinical scores of paralysis) (SJL/J mice): complete prevention of EAE

SMILES: COC(=O)C(N)Cc1ccc(Oc2ccc(C=C3C(=O)Nc4ccccc43)c(C(F)(F)F)c2)cc1.Cl (stereo not drawn) [Compound 8, Methyl-2-amino-3-(4-{3-trifluoromethyl-4-[(2-oxo-1,2-dihydro-3H-indol-3-ylidene)methyl]phenoxy}phenyl) propanoate hydrochloride]
dose dependence of breast cancer cell growth inhibition (MCF-7; MCF-7, doses from 1-50 μM): worked equally well | inhibition of breast cancer cell growth (MCF-7): very strong in inhibiting the breast cancer cell growth | inhibition of prostate cancer cell growth (DU-145): selectively kills breast cancer cells

SMILES: COC(=O)C(N)Cc1ccc(Oc2ccc(CC3C(=O)Nc4ccccc43)cc2C(F)(F)F)cc1.Cl (stereo not drawn) [Compound 11, Methyl-2-amino-3-(4-{2-trifluoromethyl-4-[(2-oxo-2,3-dihydro-1H-indol-3-yl)methyl]phenoxy}phenyl) propanoate hydrochloride]
inhibition of breast cancer cell growth (MCF-7): Inhibits Breast Cancer Cell Growth | inhibition of prostate cancer cell growth (DU-145): very similar in both breast and prostate cancer cells

affinity to PPARγ receptor (indirect proof from adipogenesis) (3T3-L1 fibroblasts; inferred from 3T3-L1 adipogenesis): no affinity to PPARγ receptor
SMILES: CN(C)C(=O)[C@@H](N)Cc1ccc(Oc2ccc(/C=C3/C(=O)Nc4ccccc43)cc2)cc1.Cl [Compound 20, 2-amino-N,N-dimethyl-3-{4-[4-(2-oxo-1,2-dihydroindol-3-ylidenemethyl)-phenoxy]-phenyl}-propionamide hydrochloric acid]
blood glucose [4]: Reduces Blood Glucose | body weight ([4]; compared to vehicle): lowering of body weight compared to vehicle | blood glucose [5]: strong glucose lowering activity | body weight gain (Diet induced obese mice [6]): less body weight gain compared to vehicle treated animals | decrease of serum insulin level (Diet induced obese mice [7]): 70% | adipogenesis (differentiation of fibroblasts) (3T3-L1 fibroblasts; 3T3-L1, different concentrations, stained on day 13): remained unchanged

SMILES: Cl.NC(=O)[C@@H](N)Cc1ccc(Oc2ccc(/C=C3/C(=O)Nc4ccccc43)cc2)cc1 [Compound 21, 2-amino-3-{4-[4-(2-oxo-1,2-dihydroindol-3-ylidenemethyl)-phenoxy]-phenyl}-propionamide hydrochloric acid]
inhibition of colon cancer cell growth (HCT-116): completely inhibited colon cancer cell growth

SMILES: C[C@@H]1C[C@H]2[C@@H]3CCC4=CC(=O)C=C[C@]4(C)[C@@]3(F)[C@@H](O)C[C@]2(C)[C@@]1(O)C(=O)CO [dexamethasone, reference compound]
inhibition of TNF levels (TNF-α [3]; 5 mg/kg body weight oral): 95%
